What was measured:
[1] = Caco2 Permeability Assay; type: in vitro ADME; settings: human; for efflux ratio at 2 h, 5 μM: pH 7.4, Caco-2, 5 μM, read-out: Efflux Ratio (ER); for Papp A→B at 2 h, 5 μM: pH 7.4, Caco-2, apical to basolateral
Description: Preparation of Caco-2 Cells: 50 μL and 25 mL of cell culture medium are added to each well of a Transwell® insert and reservoir, respectively. Then, the HTS Transwell® plates are incubated at 37° C., 5% CO2 for 1 hour before cell seeding. Caco-2 cell cells are diluted to 6.86×10^5 cells/mL with culture medium, and 50 μL of cell suspension are dispensed into the filter well of the 96-well HTS Transwell® plate. Cells are cultivated for 14-18 days in a cell culture incubator at 37° C., 5% CO2, 95% relative humidity. Cell culture medium is replaced every other day, beginning no later than 24 hours after initial plating.
Preparation of Stock Solutions: 10 mM stock solutions of test compounds are prepared in DMSO. The stock solutions of positive controls are prepared in DMSO at the concentration of 10 mM. Digoxin and propranolol are used as control compounds in this assay.
Assessment of Cell Monolayer Integrity: Medium is removed from the reservoir and each Transwell® insert and is replaced with prewarmed fresh culture medium. Transepithelial electrical resistance (TEER) across the monolayer is measured using Millicell Epithelial Volt-Ohm measuring system (Millipore, USA). The Plate is returned to the incubator once the measurement is done. The TEER value is calculated according to the following equation: TEER measurement (ohms)×Area of membrane (cm^2)=TEER value (ohm⋅cm^2). A TEER value greater than 230 ohm⋅cm^2 indicates a well-qualified Caco-2 monolayer.
Assay Procedure: The Caco-2 plate is removed from the incubator and washed twice with pre-warmed HBSS (10 mM HEPES, pH 7.4), and then incubated at 37° C. for 30 minutes. The stock solutions of control compounds are diluted in DMSO to get 1 mM solutions and then diluted with HBSS (10 mM HEPES, pH 7.4) to get 5 μM working solutions. The stock solutions of the test compounds are diluted in DMSO to get 1 mM solutions and then diluted with HBSS (10 mM HEPES and 4% BSA, pH 7.4) to get 5 μM working solutions. The final concentration of DMSO in the incubation system is 0.5%. To determine the rate of drug transport in the apical to basolateral direction. 75 μL of 5 μM working solutions of test compounds are added to the Transwell® insert (apical compartment) and the wells in the receiver plate (basolateral compartment) are filled with 235 μL of HBSS (10 mM HEPES and 4% BSA, pH 7.4). To determine the rate of drug transport in the basolateral to apical direction, 235 μL of 5 μM working solutions of test compounds are added to the receiver plate wells (basolateral compartment) and then the Transwell® inserts (apical compartment) are filled with 75 μL of HBSS (10 mM HEPES and 4% BSA, pH 7.4). Time 0 samples are prepared by transferring 50 μL of 5 μM working solution to wells of the 96-deepwell plate, followed by the addition of 200 μL cold methanol containing appropriate internal standards (IS). The plates are incubated at 37° C. for 2 hours. At the end of the incubation, 50 μL samples from donor sides (apical compartment for Ap→*Bl flux, and basolateral compartment for Bl→Ap) and receiver sides (basolateral compartment for Ap→Bl flux, and apical compartment for Bl→Ap) are transferred to wells of a new 96-well plate, followed by the addition of 4 volume of cold acetonitrile or methanol containing appropriate internal standards (IS). Samples are vortexed for 5 minutes and then centrifuged at 3,220 g for 40 minutes. An aliquot of 100 μL of the supernatant is mixed with an appropriate volume of ultra-pure water before LC-MS/MS analysis. To determine the Lucifer Yellow leakage after 2 hour transport period, stock solution of Lucifer yellow is prepared in ultra-pure water and diluted with HBSS (10 mM HEPES, pH 7.4) to reach the final concentration of 100 μM. 100 μL of the Lucifer yellow solution is added to each Transwell® insert (apical compartment), followed by filling the wells in the receiver plate (basolateral compartment) with 300 μL of HBSS (10 mM HEPES, pH 7.4). […]

[2] = target: T1, Tyk2 (Homo sapiens, UniProt P29597); assay: JAK Family Selectivity Assay: Tyk2 vs JAK2 binding affinity; settings: Kd TYK2 over Kd JAK2
T1 construct: made in house; host or cells: T7 phage in BL21-derived E. coli or HEK-293 cells
T1 sequence (P29597 whole entry): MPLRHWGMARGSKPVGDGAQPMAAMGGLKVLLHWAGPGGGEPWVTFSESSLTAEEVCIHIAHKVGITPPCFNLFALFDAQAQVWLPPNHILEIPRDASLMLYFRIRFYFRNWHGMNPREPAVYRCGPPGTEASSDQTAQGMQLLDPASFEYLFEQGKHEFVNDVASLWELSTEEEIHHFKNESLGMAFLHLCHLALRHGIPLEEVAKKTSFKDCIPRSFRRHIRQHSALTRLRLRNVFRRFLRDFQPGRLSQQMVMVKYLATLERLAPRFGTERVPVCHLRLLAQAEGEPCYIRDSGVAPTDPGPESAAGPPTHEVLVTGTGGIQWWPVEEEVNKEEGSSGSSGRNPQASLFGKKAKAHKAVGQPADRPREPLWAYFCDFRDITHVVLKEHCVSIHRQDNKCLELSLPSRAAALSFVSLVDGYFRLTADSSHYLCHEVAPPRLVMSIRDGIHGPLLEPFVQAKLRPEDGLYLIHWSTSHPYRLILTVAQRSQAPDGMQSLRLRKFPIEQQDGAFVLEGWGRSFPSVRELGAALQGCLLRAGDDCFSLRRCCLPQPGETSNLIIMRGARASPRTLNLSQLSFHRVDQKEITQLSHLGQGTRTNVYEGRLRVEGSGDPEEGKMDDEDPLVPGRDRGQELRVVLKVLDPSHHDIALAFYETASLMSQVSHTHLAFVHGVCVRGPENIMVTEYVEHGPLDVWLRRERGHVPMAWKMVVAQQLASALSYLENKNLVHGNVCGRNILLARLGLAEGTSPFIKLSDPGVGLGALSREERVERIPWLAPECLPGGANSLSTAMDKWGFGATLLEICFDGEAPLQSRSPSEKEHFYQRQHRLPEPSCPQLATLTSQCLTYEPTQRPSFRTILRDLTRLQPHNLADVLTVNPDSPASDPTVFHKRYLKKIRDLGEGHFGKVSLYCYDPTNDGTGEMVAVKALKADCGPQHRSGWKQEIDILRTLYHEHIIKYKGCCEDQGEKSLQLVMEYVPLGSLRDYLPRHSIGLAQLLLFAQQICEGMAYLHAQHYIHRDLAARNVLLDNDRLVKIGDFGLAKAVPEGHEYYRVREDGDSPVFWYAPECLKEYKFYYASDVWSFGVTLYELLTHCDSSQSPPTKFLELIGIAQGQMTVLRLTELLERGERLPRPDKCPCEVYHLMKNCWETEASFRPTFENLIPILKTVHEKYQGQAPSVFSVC
Description: Provided compounds are evaluated for selectivity by comparing their JAK2 binding affinity (Kd) in the above JAK2 Binding Assay with their binding affinity (Kd) for one or more other kinases. Binding affinity for other kinases is determined as follows: Kinase-tagged T7 phage strains are prepared in an E. coli host derived from the BL21 strain. E. coli are grown to log-phase and infected with T7 phage and incubated with shaking at 32° C. until lysis. The lysates are centrifuged and filtered to remove cell debris. The remaining kinases are produced in HEK-293 cells and subsequently tagged with DNA for qPCR detection. Streptavidin-coated magnetic beads are treated with biotinylated small molecule ligands for 30 minutes at room temperature to generate affinity resins for kinase assays. The liganded beads are blocked with excess biotin and washed with blocking buffer (SeaBlock (Pierce), 1% BSA, 0.05% Tween 20, 1 mM DTT) to remove unbound ligand and to reduce non-specific binding. Binding reactions are assembled by combining kinases, liganded affinity beads, and test compounds in 1× binding buffer (20% SeaBlock, 0.17×PBS, 0.05% Tween 20, 6 mM DTT). Test compounds are prepared as 111× stocks in 100% DMSO. Kds are determined using an 11-point 3-fold compound dilution series with three DMSO control points. All compounds for Kd measurements are distributed by acoustic transfer (non-contact dispensing) in 100% DMSO. The compounds are then diluted directly into the assays such that the final concentration of DMSO is 0.9%. All reactions are performed in polypropylene 384-well plate. Each has a final volume of 0.02 ml. The assay plates are incubated at room temperature with shaking for 1 hour and the affinity beads are washed with wash buffer (1×PBS, 0.05% Tween 20). The beads are then re-suspended in elution buffer (1× PBS, 0.05% Tween 20, 0.5 μM non-biotinylated affinity ligand) and incubated at room temperature with shaking for 30 minutes. The kinase concentration in the eluates is measured by qPCR. […] In some embodiments, provided compounds may be JAK2-selective over one or more of the following kinases: JAK1, JAK3, and Tyk2.

SMILES | efflux ratio at 2 h, 5 μM [1] | Papp A→B at 2 h, 5 μM [1] | TYK2/JAK2 Kd/Kd ratio [2]
COC(=O)Nc1cc(Oc2cnc3nc(Nc4cc(C(F)(F)F)cn(C)c4=O)n(C)c3c2C#N)ccn1 [Example I-3, Methyl (4-((7-cyano-1-methyl-2-((1-methyl-2-oxo-5-(trifluoromethyl)-1,2-dihydropyridin-3-yl)amino)-1H-imidazo[4,5-b]pyridin-6-yl)oxy)pyridin-2-yl)carbamate] | ≤ 2 | 12 ×10⁻⁶ cm/s | C (Kd/Kd ratio <300 and ≥100)
CN(C)C(=O)Nc1cc(Oc2cnc3nc(Nc4cc(C(F)(F)F)cn(C)c4=O)n(C)c3c2C#N)ccn1 [Example I-4, 3-(4-((7-cyano-1-methyl-2-((1-methyl-2-oxo-5-(trifluoromethyl)-1,2-dihydropyridin-3-yl)amino)-1H-imidazo[4,5-b]pyridin-6-yl)oxy)pyridin-2-yl)-1,1-dimethylurea] | 2 to 5 | 7 ×10⁻⁶ cm/s | C (Kd/Kd ratio <300 and ≥100)
Cn1cc(C(F)(F)F)cc(Nc2nc3ncc(Oc4ccnc(NC(=O)N5CCC5)c4)c(C#N)c3n2C)c1=O [Example I-7, N-(4-((7-cyano-1-methyl-2-((1-methyl-2-oxo-5-(trifluoromethyl)-1,2-dihydropyridin-3-yl)amino)-1H-imidazo[4,5-b]pyridin-6-yl)oxy)pyridin-2-yl)azetidine-1-carboxamide] | 2 to 5 | 6 ×10⁻⁶ cm/s | D (Kd/Kd ratio <100)
CO[C@H]1CCN(C(=O)Nc2cc(Oc3cnc4nc(Nc5cc(C(F)(F)F)cn(C)c5=O)n(C)c4c3C#N)ccn2)C1 [Example I-14, (S)-N-(4-((7-cyano-1-methyl-2-((1-methyl-2-oxo-5-(trifluoromethyl)-1,2-dihydropyridin-3-yl)amino)-1H-imidazo[4,5-b]pyridin-6-yl)oxy)pyridin-2-yl)-3-methoxypyrrolidine-1-carboxamide] | 2 to 5 | 4 ×10⁻⁶ cm/s | C (Kd/Kd ratio <300 and ≥100)
Cn1cc(C(F)(F)F)cc(Nc2nc3ncc(Oc4ccnc(NC(=O)OCCN5CCOCC5)c4)c(C#N)c3n2C)c1=O [Example I-15, 2-Morpholinoethyl(4-((7-cyano-1-methyl-2-((1-methyl-2-oxo-5-(trifluoromethyl)-1,2-dihydropyridin-3-yl)amino)-1H-imidazo[4,5-b]pyridin-6-yl)oxy)pyridin-2-yl)carbamate] | 2 to 5 | 4 ×10⁻⁶ cm/s | B (Kd/Kd ratio <1000 and ≥300)
Cn1cc(C(F)(F)F)cc(Nc2nc3ncc(Oc4ccnc(NC(=O)O[C@@H]5CCOC5)c4)c(C#N)c3n2C)c1=O [Example I-18, (R)-Tetrahydrofuran-3-yl(4-((7-cyano-1-methyl-2-((1-methyl-2-oxo-5-(trifluoromethyl)-1,2-dihydropyridin-3-yl)amino)-1H-imidazo[4,5-b]pyridin-6-yl)oxy)pyridin-2-yl)carbamate] | 2 to 5 | 2 ×10⁻⁶ cm/s | C (Kd/Kd ratio <300 and ≥100)
COC1CN(C(=O)Nc2cc(Oc3cnc4nc(Nc5cc6n(n5)CCCC6(F)F)n(C)c4c3C#N)ccn2)C1 [Example I-26, N-(4-((7-cyano-2-((4,4-difluoro-4,5,6,7-tetrahydropyrazolo[1,5-a]pyridin-2-yl)amino)-1-methyl-1H-imidazo[4,5-b]pyridin-6-yl)oxy)pyridin-2-yl)-3-methoxyazetidine-1-carboxamide] | 5 to 10 | 2 ×10⁻⁶ cm/s | 
Cn1c(Nc2cc3n(n2)CCOC3(C)C)nc2ncc(Oc3ccnc(NC(=O)O[C@@H]4CCOC4)c3)c(C#N)c21 [Example I-48, (R)-Tetrahydrofuran-3-yl(4-((7-cyano-2-((4,4-dimethyl-6,7-dihydro-4H-pyrazolo[5,1-c][1,4]oxazin-2-yl)amino)-1-methyl-1H-imidazo[4,5-b]pyridin-6-yl)oxy)pyridin-2-yl)carbamate] | 5 to 10 | 2 ×10⁻⁶ cm/s | 
CN(C)C(=O)Nc1cc(Oc2cnc3nc(Nc4cc5n(n4)CCC54CCC4)n(C)c3c2C#N)ccn1 [Example I-56, 3-(4-((7-cyano-2-((5′,6′-dihydrospiro[cyclobutane-1,4′-pyrrolo[1,2-b]pyrazol]-2′-yl)amino)-1-methyl-1H-imidazo[4,5-b]pyridin-6-yl)oxy)pyridin-2-yl)-1,1-dimethylurea] | ≤ 2 | 5 ×10⁻⁶ cm/s | 
COC(=O)Nc1cc(Oc2cnc3nc(Nc4cc5n(n4)CCC54CCC4)n(C)c3c2C#N)ccn1 [Example I-57, methyl(4-((7-cyano-2-((5′,6′-dihydrospiro[cyclobutane-1,4′-pyrrolo[1,2-b]pyrazol]-2′-yl)amino)-1-methyl-1H-imidazo[4,5-b]pyridin-6-yl)oxy)pyridin-2-yl)carbamate] | ≤ 2 | 5 ×10⁻⁶ cm/s | 
CC(=O)Nc1cc(Oc2cnc3nc(Nc4cc5n(n4)CCCC54CC4)n(C)c3c2C#N)ccn1 [Example I-114, N-(4-((7-cyano-2-((6′,7′-dihydro-5′H-spiro[cyclopropane-1,4′-pyrazolo[1,5-a]pyridin]-2′-yl)amino)-1-methyl-1H-imidazo[4,5-b]pyridin-6-yl)oxy)pyridin-2-yl)acetamide] | ≤ 2 | 4 ×10⁻⁶ cm/s | 
CC(=O)Nc1cc(Oc2cnc3nc(Nc4cc5n(n4)CCOCC5(C)C)n(C)c3c2C#N)ccn1 [Example I-118, N-(4-((7-cyano-2-((4,4-dimethyl-4,5,7,8-tetrahydropyrazolo[1,5-d][1,4]oxazepin-2-yl)amino)-1-methyl-1H-imidazo[4,5-b]pyridin-6-yl)oxy)pyridin-2-yl)acetamide] | 2 to 5 | 5 ×10⁻⁶ cm/s | 
